# Data as given in paper PMC5218480 (PLoS ONE, 2017).
# System: MV-4-11 cells
# Assay: Gene expression microarray analysis (Affymetrix PrimeView) and GSEA
# Assay type: cell-based, human
# Design: RFU PODN (11730768_x_at) / Fold change /veh PODN (11730768_x_at) / RFU LINC00158 (11744669_a_at) / Fold change /veh LINC00158 (11744669_a_at) / RFU DUSP10 (11751237_a_at) / Fold change /veh DUSP10 (11751237_a_at) / RFU ID3 (11757404_x_at) / Fold change /veh ID3 (11757404_x_at) / RFU PLEKHG5 (11737974_s_at) / Fold change /veh PLEKHG5 (11737974_s_at) / RFU LRRC4B (11730491_at) / Fold change /veh LRRC4B (11730491_at) / RFU GIMAP4 (11747438_a_at) / Fold change /veh GIMAP4 (11747438_a_at) / RFU KRT8 (11758183_x_at) / Fold change /veh KRT8 (11758183_x_at) / RFU CNN1 (11734310_a_at) / Fold change /veh CNN1 (11734310_a_at) / RFU VPS37D (11726825_at) / Fold change /veh VPS37D (11726825_at) / RFU C10orf10 (11716522_x_at) / Fold change /veh C10orf10 (11716522_x_at) / RFU KIR2DL2 /// KIR2DL4 /// KIR2DL5A /// KIR2DL5B /// KIR2DS1 /// KIR2DS2 /// KIR2DS3 /// KIR2DS4 /// KIR3DL3 /// KIR3DL3 /// KIR3DS1 (11738374_at) / Fold change /veh KIR2DL2 /// KIR2DL4 /// KIR2DL5A /// KIR2DL5B /// KIR2DS1 /// KIR2DS2 /// KIR2DS3 /// KIR2DS4 /// KIR3DL3 /// KIR3DL3 /// KIR3DS1 (11738374_at) / RFU C1QL1 (11718748_at) / Fold change /veh C1QL1 (11718748_at) / RFU TMPRSS4 (11747572_a_at) / Fold change /veh TMPRSS4 (11747572_a_at) / RFU HAMP (11756126_x_at) / Fold change /veh HAMP (11756126_x_at) / RFU RNFT2 (11725882_a_at) / Fold change /veh RNFT2 (11725882_a_at) / RFU NR4A2 (11747474_a_at) / Fold change /veh NR4A2 (11747474_a_at) / RFU ABCC12 (11746883_a_at) / Fold change /veh ABCC12 (11746883_a_at) / RFU TMEM136 (11760407_x_at) / Fold change /veh TMEM136 (11760407_x_at) / RFU CLDN22 /// WWC2 (11732394_at) / Fold change /veh CLDN22 /// WWC2 (11732394_at) / RFU HLA-DPB1 (11760878_x_at) / Fold change /veh HLA-DPB1 (11760878_x_at) / RFU SPINT1 (11716480_a_at) / Fold change /veh SPINT1 (11716480_a_at) / RFU GAP43 (11754022_s_at) / Fold change /veh GAP43 (11754022_s_at) / RFU A4GNT (11735810_at) / Fold change /veh A4GNT (11735810_at) / RFU PRB3 (11715151_x_at) / Fold change /veh PRB3 (11715151_x_at) / RFU TUBB4B (11761932_at) / Fold change /veh TUBB4B (11761932_at) / RFU CAPN14 (11732068_a_at) / Fold change /veh CAPN14 (11732068_a_at) / RFU TMCC2 (11721928_a_at) / Fold change /veh TMCC2 (11721928_a_at) / RFU IRGQ (11745062_a_at) / Fold change /veh IRGQ (11745062_a_at) / RFU FAM174B (11720279_a_at) / Fold change /veh FAM174B (11720279_a_at) / RFU TMPRSS4 (11748680_a_at) / Fold change /veh TMPRSS4 (11748680_a_at) / RFU FAM212B (11763350_a_at) / Fold change /veh FAM212B (11763350_a_at) / RFU PLEKHG5 (11743358_a_at) / Fold change /veh PLEKHG5 (11743358_a_at) / RFU ZSCAN30 (11745921_a_at) / Fold change /veh ZSCAN30 (11745921_a_at) / RFU CMKLR1 (11741424_a_at) / Fold change /veh CMKLR1 (11741424_a_at) / RFU LOC101060620 /// MAPK8IP1 (11723275_at) / Fold change /veh LOC101060620 /// MAPK8IP1 (11723275_at) / RFU SPTSSB (11747773_x_at) / Fold change /veh SPTSSB (11747773_x_at) / RFU PRSS12 (11739890_at) / Fold change /veh PRSS12 (11739890_at) / RFU BIN1 (11741810_x_at) / Fold change /veh BIN1 (11741810_x_at) / RFU WNT11 (11732464_a_at) / Fold change /veh WNT11 (11732464_a_at) / RFU C10orf10 (11716521_a_at) / Fold change /veh C10orf10 (11716521_a_at) / RFU C5orf56 (11738089_at) / Fold change /veh C5orf56 (11738089_at) / RFU CYB561 (11721691_x_at) / Fold change /veh CYB561 (11721691_x_at) / RFU ANKRD19P (11752326_a_at) / Fold change /veh ANKRD19P (11752326_a_at) / RFU OR2T12 /// OR2T33 /// OR2T8 (11738714_s_at) / Fold change /veh OR2T12 /// OR2T33 /// OR2T8 (11738714_s_at) / RFU VCAN (11748164_a_at) / Fold change /veh VCAN (11748164_a_at) / RFU JSRP1 (11732532_at) / Fold change /veh JSRP1 (11732532_at) / RFU KRTAP10-11 (11738290_x_at) / Fold change /veh KRTAP10-11 (11738290_x_at) / RFU MYO3A (11730013_a_at) / Fold change /veh MYO3A (11730013_a_at) / RFU EBF3 (11725865_a_at) / Fold change /veh EBF3 (11725865_a_at) / RFU CAMK2N1 (11719241_x_at) / Fold change /veh CAMK2N1 (11719241_x_at) / RFU C5orf56 (11738088_a_at) / Fold change /veh C5orf56 (11738088_a_at) / RFU OLFML3 (11715873_a_at) / Fold change /veh OLFML3 (11715873_a_at) / RFU LOC100653217 /// NTM (11731650_a_at) / Fold change /veh LOC100653217 /// NTM (11731650_a_at) / RFU MAPK11 (11762145_a_at) / Fold change /veh MAPK11 (11762145_a_at) / RFU FIZ1 (11724087_x_at) / Fold change /veh FIZ1 (11724087_x_at) / RFU OASL (11726364_x_at) / Fold change /veh OASL (11726364_x_at) / RFU SOX15 (11748057_x_at) / Fold change /veh SOX15 (11748057_x_at) / RFU CD79A (11719716_a_at) / Fold change /veh CD79A (11719716_a_at) / RFU HIST1H1D (11736915_at) / Fold change /veh HIST1H1D (11736915_at) / RFU CASKIN2 (11723855_a_at) / Fold change /veh CASKIN2 (11723855_a_at) / RFU LOC730098 (11760151_x_at) / Fold change /veh LOC730098 (11760151_x_at) / RFU OR4N2 (11742367_at) / Fold change /veh OR4N2 (11742367_at) / RFU PRRT2 (11749266_a_at) / Fold change /veh PRRT2 (11749266_a_at) / RFU SNX32 (11753110_a_at) / Fold change /veh SNX32 (11753110_a_at) / RFU CDHR5 (11726645_a_at) / Fold change /veh CDHR5 (11726645_a_at) / RFU RCAN1 (11760418_a_at) / Fold change /veh RCAN1 (11760418_a_at) / RFU FAM167A (11723789_a_at) / Fold change /veh FAM167A (11723789_a_at) / RFU FAM26E (11764081_at) / Fold change /veh FAM26E (11764081_at) / RFU ISYNA1 (11749810_s_at) / Fold change /veh ISYNA1 (11749810_s_at) / RFU ACY1 (11761880_at) / Fold change /veh ACY1 (11761880_at) / RFU 11764098_at / Fold change /veh 11764098_at / RFU SAMD14 (11745864_x_at) / Fold change /veh SAMD14 (11745864_x_at) / RFU NPB (11741838_a_at) / Fold change /veh NPB (11741838_a_at) / RFU TMPRSS6 (11731388_a_at) / Fold change /veh TMPRSS6 (11731388_a_at) / RFU KRTAP10-2 (11738614_at) / Fold change /veh KRTAP10-2 (11738614_at) / RFU ARHGAP8 /// PRR5-ARHGAP8 (11727945_x_at) / Fold change /veh ARHGAP8 /// PRR5-ARHGAP8 (11727945_x_at) / RFU KRTAP5-7 /// NADSYN1 (11734609_at) / Fold change /veh KRTAP5-7 /// NADSYN1 (11734609_at) / RFU RASL12 (11751679_a_at) / Fold change /veh RASL12 (11751679_a_at) / RFU CDKN2B (11736163_a_at) / Fold change /veh CDKN2B (11736163_a_at) / RFU PRF1 (11729649_at) / Fold change /veh PRF1 (11729649_at) / RFU, ZNF638 /// ZNF638-IT1 / Fold change vs veh, ZNF638 /// ZNF638-IT1 / RFU, PANK3 / Fold change vs veh, PANK3 / RFU, SH3YL1 / Fold change vs veh, SH3YL1 / RFU, ZEB2 / Fold change vs veh, ZEB2 / RFU, NRIP1 / Fold change vs veh, NRIP1 / RFU, PTTG1IP / Fold change vs veh, PTTG1IP / RFU, CAPN2 / Fold change vs veh, CAPN2 / RFU, MED14 / Fold change vs veh, MED14 / RFU, SNORA58 / Fold change vs veh, SNORA58 / RFU, C1orf63 / Fold change vs veh, C1orf63 / RFU, LRRFIP1 / Fold change vs veh, LRRFIP1 / RFU, NDUFAF7 / Fold change vs veh, NDUFAF7 / RFU, SLC12A2 / Fold change vs veh, SLC12A2 / RFU, IBTK / Fold change vs veh, IBTK / RFU, ESF1 / Fold change vs veh, ESF1 / Fold change vs veh, TMEM50B / RFU, TAOK1 / Fold change vs veh, TAOK1 / RFU, ACBD3 / Fold change vs veh, ACBD3 / RFU, TMA16 / Fold change vs veh, TMA16 / RFU, RWDD3 / Fold change vs veh, RWDD3 / RFU, BCAT1 / Fold change vs veh, BCAT1 / RFU, EDEM3 / Fold change vs veh, EDEM3 / RFU, TMEM33 / Fold change vs veh, TMEM33 / RFU, WDR75 / Fold change vs veh, WDR75 / RFU, AHCTF1 / Fold change vs veh, AHCTF1 / RFU, TFRC / Fold change vs veh, TFRC / RFU, ZDHHC17 / Fold change vs veh, ZDHHC17 / RFU, NOM1 / Fold change vs veh, NOM1 / RFU, ARL8B / Fold change vs veh, ARL8B / RFU, ZBTB11 / Fold change vs veh, ZBTB11 / RFU, TAMM41 / Fold change vs veh, TAMM41 / RFU, KIAA1704 /// LOC100996395 / Fold change vs veh, KIAA1704 /// LOC100996395 / RFU, ING1 / Fold change vs veh, ING1 / RFU, TRMT61B / Fold change vs veh, TRMT61B / RFU, FUBP3 / Fold change vs veh, FUBP3 / RFU, TP53 / Fold change vs veh, TP53 / RFU, TNKS2 / Fold change vs veh, TNKS2 / RFU, ZFP14 / Fold change vs veh, ZFP14 / RFU, ACTR2 / Fold change vs veh, ACTR2 / RFU, PPP3R1 / Fold change vs veh, PPP3R1 / RFU, PIK3R1 / Fold change vs veh, PIK3R1 / RFU, HNRNPA1 / Fold change vs veh, HNRNPA1 / RFU, RNF170 / Fold change vs veh, RNF170 / RFU, ZNF28 / Fold change vs veh, ZNF28 / RFU, RNGTT / Fold change vs veh, RNGTT / RFU, OGT / Fold change vs veh, OGT / RFU, BRD1 / Fold change vs veh, BRD1 / RFU, MARS / Fold change vs veh, MARS / RFU, ZNF655 / Fold change vs veh, ZNF655 / RFU, FAHD1 / Fold change vs veh, FAHD1 / RFU, BDP1 / Fold change vs veh, BDP1 / RFU, LRRCC1 / Fold change vs veh, LRRCC1 / RFU, ARID1A / Fold change vs veh, ARID1A / RFU, ZNF146 / Fold change vs veh, ZNF146 / RFU, ZNF330 / Fold change vs veh, ZNF330 / RFU, GPN3 / Fold change vs veh, GPN3 / RFU, C9orf123 / Fold change vs veh, C9orf123 / RFU, N4BP2L2 / Fold change vs veh, N4BP2L2 / RFU, ARFIP1 / Fold change vs veh, ARFIP1 / RFU, FAM179B / Fold change vs veh, FAM179B / RFU, BCL10 / Fold change vs veh, BCL10 / RFU, UHRF1BP1L / Fold change vs veh, UHRF1BP1L / RFU, BET1 / Fold change vs veh, BET1 / RFU, CNOT2 / Fold change vs veh, CNOT2 / RFU, ZNF268 / Fold change vs veh, ZNF268 / Fold change vs veh, ZNF507 / RFU, DGCR2 / Fold change vs veh, DGCR2 / RFU, WDSUB1 / Fold change vs veh, WDSUB1 / Fold change vs veh, HSP90B1 /// MIR3652 / RFU, ADSS / Fold change vs veh, ADSS / RFU, GK / Fold change vs veh, GK / RFU, ZNF148 / Fold change vs veh, ZNF148 / RFU, TAF9 / Fold change vs veh, TAF9 / RFU, SLC1A5 / Fold change vs veh, SLC1A5 / RFU, SLMO2 / Fold change vs veh, SLMO2 / RFU, ABCC4 / Fold change vs veh, ABCC4 / RFU, LOC101060439 /// RAP1B / Fold change vs veh, LOC101060439 /// RAP1B / RFU, RFX7 / Fold change vs veh, RFX7 / RFU, GTPBP10 / Fold change vs veh, GTPBP10 / RFU, CNEP1R1 / Fold change vs veh, CNEP1R1 / RFU, BIVM-ERCC5 /// ERCC5 / Fold change vs veh, BIVM-ERCC5 /// ERCC5 / RFU, ILF3 / Fold change vs veh, ILF3 / RFU 11762660_at / Fold change /veh 11762660_at / RFU VCAN (11757783_s_at) / Fold change /veh VCAN (11757783_s_at) / RFU DDX43 (11728927_at) / Fold change /veh DDX43 (11728927_at) / RFU KRT8 (11758188_x_at) / Fold change /veh KRT8 (11758188_x_at) / RFU NKD1 (11759106_at) / Fold change /veh NKD1 (11759106_at) / RFU SRD5A1 (11742802_a_at) / Fold change /veh SRD5A1 (11742802_a_at) / RFU TPSAB1 /// TPSB2 (11721975_s_at) / Fold change /veh TPSAB1 /// TPSB2 (11721975_s_at) / RFU GSTM3 (11746129_a_at) / Fold change /veh GSTM3 (11746129_a_at) / RFU IL23R (11737362_x_at) / Fold change /veh IL23R (11737362_x_at) / RFU TMEM51 (11727254_a_at) / Fold change /veh TMEM51 (11727254_a_at) / RFU PIWIL2 (11732686_x_at) / Fold change /veh PIWIL2 (11732686_x_at) / RFU ORM1 (11744905_x_at) / Fold change /veh ORM1 (11744905_x_at) / RFU CCDC152 (11743942_at) / Fold change /veh CCDC152 (11743942_at) / RFU ECM1 (11717891_a_at) / Fold change /veh ECM1 (11717891_a_at) / RFU IL23R (11748794_a_at) / Fold change /veh IL23R (11748794_a_at) / RFU TNFAIP8L3 (11732012_x_at) / Fold change /veh TNFAIP8L3 (11732012_x_at) / RFU MBOAT4 (11741988_at) / Fold change /veh MBOAT4 (11741988_at) / RFU 11764193_at / Fold change /veh 11764193_at / RFU TMEM53 (11763286_at) / Fold change /veh TMEM53 (11763286_at) / RFU MAGEB2 (11727129_at) / Fold change /veh MAGEB2 (11727129_at) / RFU TMEM200A (11744735_a_at) / Fold change /veh TMEM200A (11744735_a_at) / RFU CCDC152 (11751479_a_at) / Fold change /veh CCDC152 (11751479_a_at) / RFU FAM211A (11726209_a_at) / Fold change /veh FAM211A (11726209_a_at) / RFU RGS16 (11746705_a_at) / Fold change /veh RGS16 (11746705_a_at) / RFU VCAN (11755009_s_at) / Fold change /veh VCAN (11755009_s_at) / RFU RHOB (11743442_s_at) / Fold change /veh RHOB (11743442_s_at) / RFU RGS16 (11720943_a_at) / Fold change /veh RGS16 (11720943_a_at) / RFU RGS16 (11720944_at) / Fold change /veh RGS16 (11720944_at) / RFU, VPS4B / Fold change vs veh, VPS4B / RFU, CREB1 / Fold change vs veh, CREB1 / RFU, DNAJC13 / Fold change vs veh, DNAJC13 / RFU, GNAQ / Fold change vs veh, GNAQ / RFU, CDK5R1 / Fold change vs veh, CDK5R1 / RFU, ZRANB3 / Fold change vs veh, ZRANB3 / RFU, CUL4A / Fold change vs veh, CUL4A / RFU, CCNY / Fold change vs veh, CCNY / RFU, UFL1 / Fold change vs veh, UFL1 / RFU, COG3 / Fold change vs veh, COG3 / RFU, DIAPH2 / Fold change vs veh, DIAPH2 / RFU, SKA2 / Fold change vs veh, SKA2 / RFU, AFF3 / Fold change vs veh, AFF3 / RFU, LMF1 / Fold change vs veh, LMF1 / RFU, IPO11 / Fold change vs veh, IPO11 / RFU, DFFB / Fold change vs veh, DFFB / RFU, FOXP1 / Fold change vs veh, FOXP1 / RFU, CARD8 / Fold change vs veh, CARD8 / RFU, STRN3 / Fold change vs veh, STRN3 / RFU, ADK / Fold change vs veh, ADK / RFU, RASSF2 / Fold change vs veh, RASSF2 / RFU, WIPF1 / Fold change vs veh, WIPF1 / RFU, LARP1B / Fold change vs veh, LARP1B / RFU, RASA1 / Fold change vs veh, RASA1 / RFU, RB1 / Fold change vs veh, RB1 / RFU, PPFIA1 / Fold change vs veh, PPFIA1 / RFU, MAT2A / Fold change vs veh, MAT2A / RFU, CCT5 / Fold change vs veh, CCT5 / RFU, WDR92 / Fold change vs veh, WDR92 / RFU, CUX1 / Fold change vs veh, CUX1 / RFU, TTC7A / Fold change vs veh, TTC7A / RFU, TMEM135 / Fold change vs veh, TMEM135 / RFU, DEPTOR / Fold change vs veh, DEPTOR / RFU, CPM / Fold change vs veh, CPM / RFU, DNAJB6 / Fold change vs veh, DNAJB6 / RFU, CACNA2D3 / Fold change vs veh, CACNA2D3 / RFU, DTX4 / Fold change vs veh, DTX4 / RFU, TFCP2 / Fold change vs veh, TFCP2 / RFU, GMCL1 /// GMCL1P1 / Fold change vs veh, GMCL1 /// GMCL1P1 / RFU, AEBP2 / Fold change vs veh, AEBP2 / RFU, SNHG1 /// SNORD22 /// SNORD25 /// SNORD26 /// SNORD27 /// SNORD28 /// SNORD29 /// SNORD31 / Fold change vs veh, SNHG1 /// SNORD22 /// SNORD25 /// SNORD26 /// SNORD27 /// SNORD28 /// SNORD29 /// SNORD31 / Fold change (Aza/veh), C12orf56 (ProbeSet 11735607_a_at) / Fold change (ACY-1035/veh), C12orf56 (ProbeSet 11735607_a_at) / Fold change (Aza/veh), FGFR1OP (ProbeSet 11751329_s_at) / Fold change (ACY-1035/veh), FGFR1OP (ProbeSet 11751329_s_at) / Fold change (Aza/veh), VPS36 (ProbeSet 11739960_a_at) / Fold change (ACY-1035/veh), VPS36 (ProbeSet 11739960_a_at) / RFU SYPL1 (11715823_x_at) / Fold change /veh SYPL1 (11715823_x_at) / RFU IGFBP7 (11715501_s_at) / Fold change /veh IGFBP7 (11715501_s_at) / RFU REEP3 (11722064_at) / Fold change /veh REEP3 (11722064_at) / RFU IGLL1 (11728026_x_at) / Fold change /veh IGLL1 (11728026_x_at): dose or concentration left out as unconfirmed
# Conditions: MV-4-11 cells, 48 hours
compound,measurement,value
Nc1ccc(-c2cccs2)cc1NC(=O)c1ccc2c(c1)cc(C1CC1)n2CCN1CCOCC1 [ACY-1035],RFU CASKIN2 (11723855_a_at),29.44 RFU
